Measurements: US20210038607A1, “OXADIAZOLYLTHIOPHENE DERIVATIVES USEFUL AS HISTONE DEACETYLASE INHIBITORS” (Karus Therapeutics Limited, priority 2018, published 2021)

Experiments:
Human HDAC5 = molecular target: T1, Human HDAC5 (Homo sapiens, UniProt Q9UQL6); test: HDAC5 biochemical assay, class IIa-specific substrate; details: read-out: HDAC Isoform IC50 (nM) 5
T1 construct: full length with C-terminal His tag, MW=51.1 kDa; His (C); host or cells: baculovirus expression system
How it was run: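 Two-step fluorogenic read-out: deacetylated trifluoroacetyl-lysine AMC substrate (50 μM) digested by developer, measured at Ex/Em 360/460. Deacetylation step: 0.05 ng/ul His-tagged full-length baculoviral enzyme with compound, 30 min, room temperature, pH 8.0 Tris with 1 mg/mL BSA and 1% DMSO.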

Recombinant human HDAC6 = molecular target: T2, Recombinant human HDAC6 (Homo sapiens, UniProt Q9UBN7); test: HDAC6 biochemical assay, AMC-labeled peptide substrate; details: HDAC6; read-out: HDAC Isoform IC50 (nM) 6
T2 construct: full length, MW=159 kDa; GST (N); host or cells: Sf9 insect cells (baculovirus)
T2 sequence (Q9UBN7 1-1215): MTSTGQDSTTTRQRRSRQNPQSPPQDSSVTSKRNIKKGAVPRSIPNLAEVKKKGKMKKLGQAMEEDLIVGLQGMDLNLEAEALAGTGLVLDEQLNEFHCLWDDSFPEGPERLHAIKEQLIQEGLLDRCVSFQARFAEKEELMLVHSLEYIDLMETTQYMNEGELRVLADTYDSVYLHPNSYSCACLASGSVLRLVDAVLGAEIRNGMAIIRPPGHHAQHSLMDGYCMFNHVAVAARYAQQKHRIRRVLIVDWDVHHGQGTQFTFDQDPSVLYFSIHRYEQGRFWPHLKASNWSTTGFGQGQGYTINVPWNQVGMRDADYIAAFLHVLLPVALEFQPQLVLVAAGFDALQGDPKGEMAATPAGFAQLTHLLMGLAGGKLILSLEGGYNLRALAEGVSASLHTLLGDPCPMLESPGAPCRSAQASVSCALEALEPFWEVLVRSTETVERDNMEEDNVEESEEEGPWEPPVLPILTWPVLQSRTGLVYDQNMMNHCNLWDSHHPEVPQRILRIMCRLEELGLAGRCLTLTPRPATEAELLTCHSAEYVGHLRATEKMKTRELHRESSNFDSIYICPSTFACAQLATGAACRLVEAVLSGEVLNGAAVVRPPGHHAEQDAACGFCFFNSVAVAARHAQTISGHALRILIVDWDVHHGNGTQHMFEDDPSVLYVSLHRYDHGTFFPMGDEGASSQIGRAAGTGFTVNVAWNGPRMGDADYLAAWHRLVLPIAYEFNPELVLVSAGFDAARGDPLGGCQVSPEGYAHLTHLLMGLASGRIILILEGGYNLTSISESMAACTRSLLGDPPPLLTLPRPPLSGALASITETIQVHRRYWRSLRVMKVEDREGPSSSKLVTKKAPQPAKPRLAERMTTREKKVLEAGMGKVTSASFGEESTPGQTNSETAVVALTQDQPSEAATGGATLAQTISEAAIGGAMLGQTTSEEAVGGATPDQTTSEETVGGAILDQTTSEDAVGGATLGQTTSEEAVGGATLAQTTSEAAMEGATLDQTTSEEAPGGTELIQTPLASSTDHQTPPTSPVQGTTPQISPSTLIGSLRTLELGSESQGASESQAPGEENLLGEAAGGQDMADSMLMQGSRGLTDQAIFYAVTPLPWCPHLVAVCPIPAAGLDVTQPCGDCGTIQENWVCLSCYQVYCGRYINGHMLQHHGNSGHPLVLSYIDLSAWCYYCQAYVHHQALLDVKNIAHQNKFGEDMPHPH
How it was run: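 Two-step fluorogenic read-out: enzyme deacetylates 50 μM RHKK(Ac)AMC for 1 h at 30° C in pH 8.0 Tris buffer with BSA and 1% DMSO, then developer cleavage gives signal at Ex 360/Em 460. Enzyme: 0.3 ng/ul recombinant full-length human HDAC6, GST-tagged, Sf9-expressed.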

Human HDAC4 = molecular target: T3, Human HDAC4 (Homo sapiens, UniProt P56524); test: HDAC4 biochemical assay, class IIa-specific substrate; details: read-out: HDAC Isoform IC50 (nM) 4
T3 construct: amino acids 627-1085 with N-terminal GST tag; GST (N); host or cells: baculovirus expression system
How it was run: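 Two-step fluorogenic read-out: deacetylated BOC-Lys(trifluoroacetyl)-AMC (50 μM) was digested by developer and measured at Ex/Em 360/460. Deacetylation by 0.004 ng/ul HDAC4 (aa 627-1085, N-terminal GST) ran 30 min at room temperature, pH 8.0 Tris buffer, 1 mg/mL BSA, 1% DMSO.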

Human HDAC9 = molecular target: T4, Human HDAC9 (Homo sapiens, UniProt Q9UKV0); test: HDAC9 biochemical assay, class IIa-specific substrate; details: read-out: HDAC Isoform IC50 (nM) 9
T4 construct: amino acids 604-1066 with C-terminal His tag; His (C); host or cells: baculovirus expression system
How it was run: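 HDAC9 residues 604-1066 (C-terminal His tag, baculovirus-expressed) at 0.06 ng/ul with 50 μM class IIa substrate Boc-Lys(trifluoroacetyl)-AMC in Tris-HCl pH 8.0 buffer with BSA and 1% DMSO. 30 min at room temperature, then developer added; fluorescence read at 360/460 nm Ex/Em.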

Human HDAC1 = molecular target: T5, Human HDAC1 (Homo sapiens, UniProt Q13547); test: HDAC1 biochemical assay, AMC-labeled peptide substrate; details: read-out: HDAC Isoform IC50 (nM) 1
T5 construct: full length with C-terminal His-tag and C-terminal FLAG-tag; His (C); FLAG (C); host or cells: baculovirus expression system
How it was run: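 Two-step fluorogenic read: HDAC1 deacetylates 50 μM acetyl-lysine AMC peptide RHKK(Ac)AMC for 1 h at 30° C (pH 8.0, 1% DMSO, with compound), then developer digests the product for fluorescence at Ex/Em 360/460. Enzyme is full-length human, His/FLAG-tagged, insect-cell expressed, at 0.3 ng/ul.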

Human HDAC7 = molecular target: T6, Human HDAC7 (Homo sapiens, UniProt Q8WUI4); test: HDAC7 biochemical assay, class IIa-specific substrate; details: read-out: HDAC Isoform IC50 (nM) 7
T6 construct: (a.a. 518-end) with N-terminal GST tag; GST (N); host or cells: baculovirus expression system
T6 sequence (Q8WUI4 518-952 limits assumed): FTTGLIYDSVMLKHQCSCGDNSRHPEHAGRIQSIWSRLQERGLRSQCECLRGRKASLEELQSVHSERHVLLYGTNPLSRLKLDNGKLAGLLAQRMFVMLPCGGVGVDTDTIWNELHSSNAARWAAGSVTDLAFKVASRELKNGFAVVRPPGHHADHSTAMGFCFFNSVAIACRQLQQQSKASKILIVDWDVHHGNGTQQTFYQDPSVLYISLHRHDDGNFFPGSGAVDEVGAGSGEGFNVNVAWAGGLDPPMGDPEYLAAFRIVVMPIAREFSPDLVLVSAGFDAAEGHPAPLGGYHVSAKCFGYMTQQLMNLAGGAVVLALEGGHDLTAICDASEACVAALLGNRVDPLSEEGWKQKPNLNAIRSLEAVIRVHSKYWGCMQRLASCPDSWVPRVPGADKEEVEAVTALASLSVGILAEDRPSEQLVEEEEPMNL
How it was run: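 Two-step fluorogenic readout: class IIa-selective trifluoroacetyl-lysine AMC substrate (50 μM) deacetylated by N-terminal GST-HDAC7 fragment (0.001 ng/ul), then digested by developer, Ex/Em 360/460. Reaction: 30 min, room temperature, Tris-HCl pH 8.0, NaCl/KCl/MgCl2, 1 mg/mL BSA, 1% DMSO.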

T3 sequence (P56524 627-1084 limits assumed): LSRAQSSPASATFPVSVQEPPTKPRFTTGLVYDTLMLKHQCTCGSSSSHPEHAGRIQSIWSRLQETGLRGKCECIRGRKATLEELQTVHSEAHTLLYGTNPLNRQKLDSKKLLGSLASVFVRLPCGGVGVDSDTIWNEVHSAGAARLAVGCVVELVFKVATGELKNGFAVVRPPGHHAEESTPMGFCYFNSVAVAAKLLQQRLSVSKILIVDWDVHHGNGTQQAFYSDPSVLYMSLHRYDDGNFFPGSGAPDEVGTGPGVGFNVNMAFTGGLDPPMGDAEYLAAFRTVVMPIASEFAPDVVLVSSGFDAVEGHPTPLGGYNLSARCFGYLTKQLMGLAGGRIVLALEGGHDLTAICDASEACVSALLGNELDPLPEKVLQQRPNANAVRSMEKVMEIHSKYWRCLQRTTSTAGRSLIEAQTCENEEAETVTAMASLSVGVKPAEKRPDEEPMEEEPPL
T5 sequence (Q13547 whole entry, canonical isoform): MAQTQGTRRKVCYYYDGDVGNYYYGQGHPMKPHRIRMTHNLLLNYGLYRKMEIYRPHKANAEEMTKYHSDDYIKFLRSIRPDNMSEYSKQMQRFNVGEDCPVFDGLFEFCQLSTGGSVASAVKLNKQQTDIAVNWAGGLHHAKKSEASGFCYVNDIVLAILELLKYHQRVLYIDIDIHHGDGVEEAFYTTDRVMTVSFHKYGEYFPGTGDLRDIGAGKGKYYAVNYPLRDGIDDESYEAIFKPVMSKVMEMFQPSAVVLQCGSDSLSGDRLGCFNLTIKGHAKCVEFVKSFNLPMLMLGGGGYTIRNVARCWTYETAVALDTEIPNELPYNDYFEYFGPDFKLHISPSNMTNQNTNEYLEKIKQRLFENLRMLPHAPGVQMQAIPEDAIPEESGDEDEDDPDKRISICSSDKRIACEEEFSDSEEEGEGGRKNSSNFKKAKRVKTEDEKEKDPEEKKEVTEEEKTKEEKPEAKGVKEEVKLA
T1 sequence (Q9UQL6 656-1122 limits assumed): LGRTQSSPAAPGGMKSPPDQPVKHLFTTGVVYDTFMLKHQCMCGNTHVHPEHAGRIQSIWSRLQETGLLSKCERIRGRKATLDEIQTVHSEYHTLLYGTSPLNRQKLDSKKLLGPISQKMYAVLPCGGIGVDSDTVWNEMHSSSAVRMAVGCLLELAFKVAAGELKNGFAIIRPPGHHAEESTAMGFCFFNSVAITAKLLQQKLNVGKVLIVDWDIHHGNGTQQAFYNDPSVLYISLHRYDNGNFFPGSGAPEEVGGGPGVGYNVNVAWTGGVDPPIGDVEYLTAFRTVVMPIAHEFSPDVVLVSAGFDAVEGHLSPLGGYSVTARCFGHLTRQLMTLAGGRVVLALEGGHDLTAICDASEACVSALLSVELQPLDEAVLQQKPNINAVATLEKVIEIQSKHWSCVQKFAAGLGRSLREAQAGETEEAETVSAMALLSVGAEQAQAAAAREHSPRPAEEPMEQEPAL
T4 sequence (Q9UKV0 604-1066 isoform Q9UKV0-5): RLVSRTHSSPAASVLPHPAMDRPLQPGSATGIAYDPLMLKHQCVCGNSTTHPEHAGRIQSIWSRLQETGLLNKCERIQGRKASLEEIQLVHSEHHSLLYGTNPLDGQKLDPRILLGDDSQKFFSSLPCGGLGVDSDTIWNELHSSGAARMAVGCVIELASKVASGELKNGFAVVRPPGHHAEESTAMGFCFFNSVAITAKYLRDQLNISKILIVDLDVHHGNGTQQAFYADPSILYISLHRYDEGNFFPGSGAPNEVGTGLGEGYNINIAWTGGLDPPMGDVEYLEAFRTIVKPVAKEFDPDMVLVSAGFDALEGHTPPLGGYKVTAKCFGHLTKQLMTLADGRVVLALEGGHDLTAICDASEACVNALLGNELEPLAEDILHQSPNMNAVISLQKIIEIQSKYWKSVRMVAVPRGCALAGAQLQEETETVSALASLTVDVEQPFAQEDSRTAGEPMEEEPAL

SMILES | IC50 (Human HDAC5) [nM] | IC50 (Recombinant human HDAC6) [nM] | IC50 (Human HDAC4) [nM] | IC50 (Human HDAC9) [nM] | IC50 (Human HDAC1) [nM] | IC50 (Human HDAC7) [nM]
FC(F)(F)c1cnnc(N(Cc2ccc(-c3noc(C(F)(F)F)n3)s2)c2ncccc2N2CCOCC2)c1 [Example EH, N-[3-(Morpholin-4-yl)pyridin-2-yl]-5-(trifluoromethyl)-N-({5-[5-(trifluoromethyl)-1,2,4-oxadiazol-3-yl]thiophen-2-yl}methyl)pyridazin-3-amine] | ≤ 10000 | ≤ 10000 | ≤ 10000 | > 10000 | > 10000 | ≤ 10000
CN(C)C(=O)c1ccc(N(Cc2ccc(-c3noc(C(F)(F)F)n3)s2)c2cnccn2)nc1 [Example AC, N,N-Dimethyl-6-[pyrazin-2-yl({5-[5-(trifluoromethyl)-1,2,4-oxadiazol-3-yl]thiophen-2-yl}methyl)amino]pyridine-3-carboxamide] | ≤ 1000 | ≤ 1000 | ≤ 1000 | ≤ 10000 | > 10000 | ≤ 10000
FC(F)(F)c1nc(-c2ccc(CN(c3cnccn3)c3ccc(N4CCOCC4)nn3)s2)no1 [Example DJ, 6-(Morpholin-4-yl)-N-(pyrazin-2-yl)-N-({5-[5-(trifluoromethyl)-1,2,4-oxadiazol-3-yl]thiophen-2-yl}methyl)pyridazin-3-amine] | ≤ 1000 | ≤ 500 | ≤ 10000 | ≤ 10000 | > 10000 | ≤ 10000
COc1ccc(N(Cc2ccc(-c3noc(C(F)(F)F)n3)s2)c2cnccn2)nn1 [Example DG, 6-Methoxy-N-(pyrazin-2-yl)-N-({5-[5-(trifluoromethyl)-1,2,4-oxadiazol-3-yl]thiophen-2-yl}methyl)pyridazin-3-amine] | ≤ 1000 | ≤ 1000 | ≤ 1000 | ≤ 10000 | > 10000 | ≤ 10000
COc1cnc(N(Cc2ccc(-c3noc(C(F)(F)F)n3)s2)c2cc(C(F)(F)F)cnn2)cn1 [Example EP, N-(5-Methoxypyrazin-2-yl)-5-(trifluoromethyl)-N-({5-[5-(trifluoromethyl)-1,2,4-oxadiazol-3-yl]thiophen-2-yl}methyl)pyridazin-3-amine] | ≤ 10000 | ≤ 10000 | ≤ 10000 | > 10000 | > 10000 | ≤ 10000
FC(F)(F)c1nc(-c2ccc(CN(c3cnccn3)c3ccc4nccnc4n3)s2)no1 [Example Z, N-{Pyrido[2,3-b]pyrazin-6-yl}-N-({5-[5-(trifluoromethyl)-1,2,4-oxadiazol-3-yl]thiophen-2-yl}methyl)pyrazin-2-amine] | ≤ 1000 | ≤ 1000 | ≤ 1000 | ≤ 10000 | > 10000 | ≤ 1000

The remaining lines, values ahead:

IC50 (Human HDAC5) [nM] | IC50 (Recombinant human HDAC6) [nM] | IC50 (Human HDAC4) [nM] | IC50 (Human HDAC9) [nM] | IC50 (Human HDAC1) [nM] | IC50 (Human HDAC7) [nM] | SMILES
≤ 500 | ≤ 500 | ≤ 500 | ≤ 10000 | ≤ 10000 | ≤ 500 | CN1CCN(c2ccc(N(Cc3ccc(-c4noc(C(F)(F)F)n4)s3)c3cnccn3)nn2)CC1 [Example DK, 6-(4-Methylpiperazin-1-yl)-N-(pyrazin-2-yl)-N-({5-[5-(trifluoromethyl)-1,2,4-oxadiazol-3-yl]thiophen-2-yl}methyl)pyridazin-3-amine]
≤ 10000 | ≤ 10000 | ≤ 10000 | ≤ 10000 | > 10000 | ≤ 10000 | FC(F)(F)c1nc(-c2ccc(CN(c3cnccn3)c3nccc4nccnc34)s2)no1 [Example AL, N-{Pyrido[3,4-b]pyrazin-5-yl}-N-({5-[5-(trifluoromethyl)-1,2,4-oxadiazol-3-yl]thiophen-2-yl}methyl)pyrazin-2-amine]
≤ 10000 | ≤ 10000 | ≤ 10000 | > 10000 | > 10000 | ≤ 10000 | FC(F)(F)c1cnnc(N(Cc2ccc(-c3noc(C(F)(F)F)n3)s2)c2ccc(C(F)(F)F)nn2)c1 [Example EV, 6-(Trifluoromethyl)-N-({5-[5-(trifluoromethyl)-1,2,4-oxadiazol-3-yl]thiophen-2-yl}methyl)-N-[5-(trifluoromethyl)pyridazin-3-yl]pyridazin-3-amine]
≤ 1000 | ≤ 10000 | ≤ 1000 | ≤ 10000 | ≤ 10000 | ≤ 10000 | FC(F)(F)c1nc(-c2ccc(CN(c3cnccn3)c3cscn3)s2)no1 [Example T, N-(1,3-Thiazol-4-yl)-N-({5-[5-(trifluoromethyl)-1,2,4-oxadiazol-3-yl]thiophen-2-yl}methyl)pyrazin-2-amine]
≤ 10000 | ≤ 10000 | > 10000 | > 10000 | > 10000 | > 10000 | FC(F)(F)c1ccnc(N(Cc2ccc(-c3noc(C(F)(F)F)n3)s2)c2cnccn2)c1 [Example AI, N-({5-[5-(Trifluoromethyl)-1,2,4-oxadiazol-3-yl]thiophen-2-yl}methyl)-N-[4-(trifluoromethyl)pyridin-2-yl]pyrazin-2-amine]
≤ 10000 | ≤ 10000 | ≤ 1000 | ≤ 10000 | > 10000 | ≤ 10000 | FC(F)(F)c1nc(-c2ccc(CN(c3cnccn3)c3cccnn3)s2)no1 [Example DD, N-(Pyrazin-2-yl)-N-({5-[5-(trifluoromethyl)-1,2,4-oxadiazol-3-yl]thiophen-2-yl}methyl)pyridazin-3-amine]
